Source: article PMC2996484 (Journal of neurochemistry, 2010)

What was measured:
WT D1DAR = WT D1DAR (Rattus norvegicus, UniProt P18901); experiment: cAMP accumulation assay, HEK293T cells expressing WT D1DAR; assay type: cell-based; details: 1 μM PMA 30 min or 3 μM Gö6983 1 hr
PKC-null D1DAR = PKC-null D1DAR (Rattus norvegicus, UniProt P18901, S259A/S397A/S398A/S417A/S421A); experiment: cAMP accumulation assay, HEK293T cells expressing PKC-null D1DAR; assay type: cell-based; details: 1 μM PMA 30 min or 3 μM Gö6983 1 hr
Chain of PKC-null D1DAR (P18901 whole entry S259A/S397A/S398A/S417A/S421A): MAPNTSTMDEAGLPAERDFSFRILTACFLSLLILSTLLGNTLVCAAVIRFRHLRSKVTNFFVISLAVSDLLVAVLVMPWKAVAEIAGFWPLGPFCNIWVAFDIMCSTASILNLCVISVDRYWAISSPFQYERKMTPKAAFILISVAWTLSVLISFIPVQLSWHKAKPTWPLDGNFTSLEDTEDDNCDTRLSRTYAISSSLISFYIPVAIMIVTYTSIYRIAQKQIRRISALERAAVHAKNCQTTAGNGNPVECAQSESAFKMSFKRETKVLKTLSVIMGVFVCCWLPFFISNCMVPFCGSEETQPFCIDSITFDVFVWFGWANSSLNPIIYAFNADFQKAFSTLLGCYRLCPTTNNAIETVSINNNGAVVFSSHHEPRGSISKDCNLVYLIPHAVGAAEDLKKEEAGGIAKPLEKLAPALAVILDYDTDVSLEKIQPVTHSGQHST

[1] = test system: PKC phosphorylation of the D1DAR; experiment: In situ phosphorylation assay, HEK293T cells expressing the D1DAR; assay type: cell-based, rat; details: cells treated 30 min with 1 μM phorbol ester, Fig. 1A

Chain of WT D1DAR (P18901 whole entry): as the sequence (P18901 whole entry S259A/S397A/S398A/S417A/S421A) above, with A259S, A397S, A398S, A417S, A421S counted along it

Compound | effect of pretreatment on maximal DA-stimulated cAMP accumulation (WT D1DAR) | effect of pretreatment on maximal DA-stimulated cAMP accumulation (PKC-null D1DAR) | D1DAR phosphorylation above basal [1]
COc1ccc2c(c1)c(C1=C(c3c[nH]c4ccccc34)C(=O)NC1=O)cn2CCCN(C)C [Gö6983] | potentiation of the maximal amount of D1DAR-stimulated cAMP accumulation | no longer displays an enhancement of cAMP accumulation | 
CCCC(=O)O[C@@H]1[C@@H](C)[C@@]2(O)[C@@H](C=C(CO)C[C@]3(O)C(=O)C(C)=C[C@@H]23)[C@@H]2C(C)(C)[C@]12OC(=O)CCC [PDBu, phorbol 12,13 dibutyrate] |  |  | robust increase in phosphorylation
CCCCCCCCCCCCCC(=O)O[C@@H]1[C@@H](C)[C@@]2(O)[C@@H](C=C(CO)C[C@]3(O)C(=O)C(C)=C[C@@H]23)[C@@H]2C(C)(C)[C@]12OC(C)=O [PMA, phorbol 12-myristate 13-acetate] | potentiation of the maximal amount of D1DAR-stimulated cAMP accumulation | potentiation of maximal cAMP accumulation | robust increase in phosphorylation
CCCCCCCCCC(=O)O[C@@H]1[C@@H](C)[C@@]2(O)[C@@H](C=C(CO)C[C@@]3(O)C(=O)C(C)=C[C@@H]23)[C@@H]2C(C)(C)[C@]12OC(=O)CCCCCCCCC [4αPDD, 4α-phorbol-12,13-didecanoate] |  |  | inactive
